The record followed here is patent publication US20230002374A1, “GPR52 MODULATOR COMPOUNDS” (Heptares Therapeutics Limited, priority 2019, published 2023).

Molecules are shown by their SMILES.

The target in test [1] is T1, human GPR52 (Homo sapiens, UniProt Q9Y2T5).
Description: (§1) Following BacMam infection, cells were pelleted by centrifugation (335 g, 5 min), resuspended in cell freezing medium (Sigma) and frozen at −150° C. until required. On experiment day, 25 nL GPR52 compound dilutions, prepared in DMSO, were stamped onto proxiplates (PerkinElmer) by a LabCyte ECHO acoustic dispenser. Frozen cells were thawed and resuspended in assay stimulation buffer (Cisbio) containing 0.5 mM 3-iso-butyl-1-methylxanthine (IBMX, Sigma) to achieve a density of 2000 cells per well. 10 μl cells were added to assay plates using a Multidrop Combi Reagent Dispenser (ThermoFisher) before centrifugation (335 g, 1 min). Cells were incubated with compounds at 37° C. for 30 min prior to addition of cAMP detection reagents (HiRange cAMP kit, Cisbio) which were prepared according to the manufacturer's instructions. Plates were shaken for 1 h at room temperature before reading on a PHERAstar FS plate reader (BMG Labtech) using standard HTRF settings.
The target of test [2] is T1, human GPR52. In words: GPR52 Agonist Functional cAMP Assay.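 On all read-outs here: HEKf cells transduced with GPR52 BacMam for 24 h, 2000 per well, exposed to compounds 30 min at 37° C with 0.5 mM IBMX, cAMP read by HTRF.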 The conditions noted are these: for EC50: pEC50 average, HEKf cells infected with human GPR52 BacMam virus, cAMP HTRF, 30 min at 37° C.; for Emax: maximal response normalised to DMSO (0%) and maximal compound 7m (J. Med. Chem., 2014, 57, 5226) response (100%). A general note: In TR-FRET formats the signal depends on donor and acceptor labels being close together.
Description: as §1

Test [3] deals with D-amphetamine-induced hyperlocomotor response. In words: Amphetamine-induced locomotor activity in rat. The format is in vivo, male Sprague-Dawley rats. The conditions noted are these: 10 mg/kg PO, 60 min before D-amphetamine SC; activity over two hours. The procedure: The rat amphetamine-induced locomotor hyperactivity test is used to model the enhanced mesolimbic dopaminergic activity thought to contribute to psychosis in humans. […] Male Sprague-Dawley rats (200-250 g) were housed in groups with a 12 h light/dark cycle (lights on at 07.00), at an ambient temperature of 21±2° C. and with standard pelleted diet and water ad libitum. Testing was carried out in the light phase. On the day of the experiment, animals were habituated to the locomotor cages for a 60-minute period.
Locomotor activity was assessed for a two hour period after D-amphetamine treatment. Data are back-transformed means, adjusted for differences between treatment groups in activity during the 30 minutes prior to treatment with test compound or vehicle (n=10-12). Analysis was by general linear model with treatment, cohort and rack as factors. SEMs were calculated from the residuals of the statistical model.
Significant differences vs D-amphetamine are represented as *p<0.05, **p<0.01, ***p<0.001.

The test system of test [4] is subchronic PCP induced cognitive deficit. In words: Subchronic PCP-induced reversal learning deficit in rat. The format is in vivo, female Lister Hooded rats. Particulars: 6 mg/kg IP, 60 min prior to testing. The procedure: Testing was carried out in the light phase. Rats underwent operant training firstly to press the left/right lever for a food reward in the presence or absence of a visual cue, and then to respond to the opposite contingency. The reversal learning task was introduced as follows. On the day before each reversal task session, a full 30-minute operant training session was conducted in order to ensure stable responding. In the initial task, animals were first exposed to a five-minute period during which the contingency (cue position relative to active lever) was the same as for the operant training session. This was followed by a 2-minute time-out period, which was signalled by the house-light being turned off. In the subsequent 5-minute period (reversal task), the contingency was reversed. Responses made on the correct and incorrect levers were recorded. Animals undertook several of these reversal learning task sessions before the beginning of the drug studies in order to ensure that they attained a stable level of performance in both phases of the task. […] At this stage, training ceased and rats were treated with PCP (2 mg/kg, IP or vehicle 0.9% saline, IP) for 7 days followed by at least 7-days washout period.
In the initial phase, the reward contingency was the same as the previous day and in the reversal phase the reward contingency was reversed.
Data are presented as mean total number of lever presses (+SEM) and percent correct response (+SEM). […] Statistical significance was assumed when P<0.05 and was determined as follows: one-way ANOVA (IBM SPSS Statistics 22) was performed in order to detect main effect of drug treatment in the initial and reversal tasks. Where a significant effect was detected, a post-hoc LSD t-test was performed in order to compare treatment groups versus the appropriate control in the reversal phase of the test.
Data are shown as mean±s.e.m. % correct responding (n=8-10) and were analysed by ANOVA and post-hoc Student's t-test.
Data are shown as the mean total number of lever presses, correct responses are shown as clear bars and incorrect responses are shown as shaded bars (n=8-10).

T1 sequence (Q9Y2T5 whole entry): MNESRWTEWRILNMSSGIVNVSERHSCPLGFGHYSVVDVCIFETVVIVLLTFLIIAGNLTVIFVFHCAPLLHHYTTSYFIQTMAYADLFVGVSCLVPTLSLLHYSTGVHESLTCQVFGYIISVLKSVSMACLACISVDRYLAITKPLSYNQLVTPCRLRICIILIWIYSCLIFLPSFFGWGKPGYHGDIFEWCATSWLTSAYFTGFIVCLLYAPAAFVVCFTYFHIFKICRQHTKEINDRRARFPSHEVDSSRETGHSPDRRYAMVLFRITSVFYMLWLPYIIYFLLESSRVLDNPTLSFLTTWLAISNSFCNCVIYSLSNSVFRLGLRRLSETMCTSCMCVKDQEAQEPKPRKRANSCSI

The EC50 is the midpoint of the concentration-response curve. For `CC1Cc2c(cnn2-c2ccnc(Cc3cc(F)cc(C(F)(F)F)c3)c2)C(=O)N1` (single isomer, unassigned) [Example 40 Isomer 2, 1-(2-(3-fluoro-5-(trifluoromethyl)benzyl)pyridin-4-yl)-6-methyl-1,5,6,7-tetrahydro-4H-pyrazolo[4,3-c]pyridin-4-one], the “Emax (%)” value at human GPR52 [1] worked out at 83%. The same compound gave an EC50 at human GPR52 [2] of 126 nM.
As for `Cc1nn(-c2ccnc(C(O)c3cc(F)cc(C(F)(F)F)c3)c2)c2c1C(=O)NCC2` (single isomer, unassigned) [117 Isomer 2, 1-(2-((3-fluoro-5-(trifluoromethyl)phenyl)(hydroxy)methyl)pyridin-4-yl)-3-methyl-1,5,6,7-tetrahydro-4H-pyrazolo[4,3-c]pyridin-4-one], at human GPR52 [1], the “Emax (%)” value is 103%. For the same compound, the EC50 at human GPR52 [2] is 25.1 nM.
Turning to `Cc1cc(-n2nc(Cc3cc(F)cc(C(F)(F)F)c3)nc2C)ccc1C(N)=O` [FTBMT, reference compound], the “reduction of the D-amphetamine-induced hyperlocomotor response” value in test [3] is listed as “showed a trend towards a reduced D-amphetamine-induced hyperlocomotor response but statistical significance was not reached”.
In the case of `O=C1NCCc2c1cnn2-c1ccnc(C(O)c2cc(F)cc(C(F)(F)F)c2)c1` (single isomer, unassigned) [Example 36 Isomer 2, 1-(2-((3-fluoro-5-(trifluoromethyl)phenyl)(hydroxy)methyl)pyridin-4-yl)-1,5,6,7-tetrahydro-4H-pyrazolo[4,3-c]pyridin-4-one], the “Emax (%)” value at human GPR52 [1] is on record as 94%. In addition, the EC50 on human GPR52 [2] was 251 nM.
With `Oc1cc2c(cc1O)C(c1ccccc1)CNCC2` (stereo not shown) [SKF-38393, reference compound], in test [4] (scPCP treated rats), the “effect on total number of lever presses” value is recorded as “no significant effects”. The “reversal of subchronic PCP reversal learning deficit (percent correct responding, reversal phase)” value in test [4] (vs vehicle-treated subchronic PCP group) is listed as “significantly (P<0.05−P<0.001) reversed the deficit”.
A word on the Emax: it is the maximal effect, on the per cent scale that the assay sets. On human GPR52 [2], `O=C1NCCc2c1cnn2-c1cc(Oc2cc(F)cc(C(F)(F)F)c2)ccn1` [Example 18, 1-(4-(3-fluoro-5-(trifluoromethyl)phenoxy)pyridin-2-yl)-1,5,6,7-tetrahydro-4H-pyrazolo[4,3-c]pyridin-4-one] gave an Emax of 82% and an EC50 of 79.4 nM.
Turning to `Cc1nn(-c2ccnc(Cc3ccc(F)c(Cl)c3)c2)c2c1C(=O)NCC2` [Example 80, 1-(2-(3-chloro-4-fluorobenzyl)pyridin-4-yl)-3-methyl-1,5,6,7-tetrahydro-4H-pyrazolo[4,3-c]pyridin-4-one], at human GPR52 [2], the Emax worked out at 97% and the EC50 is 10 nM.
On human GPR52 [2], `O=C1NCCc2c1cnn2-c1cc(Cc2cc(F)cc(C(F)(F)F)c2)cnn1` [Example 15, 1-(5-(3-fluoro-5-(trifluoromethyl)benzyl)pyridazin-3-yl)-1,5,6,7-tetrahydro-4H-pyrazolo[4,3-c]pyridin-4-one] had an Emax of 95% and an EC50 of 126 nM.
With `Cc1nn(-c2cc(C(O)c3cc(F)cc(C(F)(F)F)c3)ccn2)c2c1C(=O)NCC2` (single isomer, unassigned) [118 Isomer 2, 1-(4-((3-fluoro-5-(trifluoromethyl)phenyl)(hydroxy)methyl)pyridin-2-yl)-3-methyl-1,5,6,7-tetrahydro-4H-pyrazolo[4,3-c]pyridin-4-one], at human GPR52 [1], the “Emax (%)” value was found to be 101%. The same compound had an EC50 at human GPR52 [2] of 7.94 nM.
On human GPR52 [2], `O=C1c2cnn(-c3cc(Cc4cc(F)cc(C(F)(F)F)c4)ccn3)c2CCN1CCO` [Example 107, 1-(4-(3-fluoro-5-(trifluoromethyl)benzyl)pyridin-2-yl)-5-(2-hydroxyethyl)-1,5,6,7-tetrahydro-4H-pyrazolo[4,3-c]pyridin-4-one] had an Emax of 99% and a concentration for a half-maximal effect (EC50) of 12.6 nM.
With `N#Cc1nn(-c2ccnc(Cc3cc(F)cc(C(F)(F)F)c3)c2)c2c1C(=O)NCC2` [Example 115, 1-(2-(3-fluoro-5-(trifluoromethyl)benzyl)pyridin-4-yl)-4-oxo-4,5,6,7-tetrahydro-1H-pyrazolo[4,3-c]pyridine-3-carbonitrile], on human GPR52 [2], the Emax is 91% and a half-maximal effect (EC50) was put at 25.1 nM.
In the case of `O=C1NCCc2c1cnn2-c1ccnc(C(O)c2cc(F)cc(C(F)(F)F)c2)c1` (single isomer, unassigned) [Example 36 Isomer 1, 1-(2-((3-fluoro-5-(trifluoromethyl)phenyl)(hydroxy)methyl)pyridin-4-yl)-1,5,6,7-tetrahydro-4H-pyrazolo[4,3-c]pyridin-4-one], the “Emax (%)” value at human GPR52 [1] came out at 72%. Moreover, the response on human GPR52 [2] was half-maximal at 1580 nM (EC50).
At human GPR52 [2], `O=C1NCCc2c1cnn2-c1cncc(Oc2cc(F)cc(C(F)(F)F)c2)c1` [Example 103, 1-(5-(3-fluoro-5-(trifluoromethyl)phenoxy)pyridin-3-yl)-1,5,6,7-tetrahydro-4H-pyrazolo[4,3-c]pyridin-4-one] showed an Emax of 68% and an EC50 of 1000 nM.
On the same counts, the results for `O=C1NCCc2c1cnn2-c1ccnc(Cc2cc(F)cc(S(F)(F)(F)(F)F)c2)c1` [Example 61, 1-(2-(3-fluoro-5-(pentafluoro-λ^6-sulfaneyl)benzyl)pyridin-4-yl)-1,5,6,7-tetrahydro-4H-pyrazolo[4,3-c]pyridin-4-one] are 99% and 50.1 nM.
Consider `Cc1cc(Cc2cc(-n3nc(C)c4c3CCNC4=O)ccn2)cnc1F` [Example 76, 1-(2-((6-fluoro-5-methylpyridin-3-yl)methyl)pyridin-4-yl)-3-methyl-1,5,6,7-tetrahydro-4H-pyrazolo[4,3-c]pyridin-4-one], for which, on human GPR52 [2], the Emax is 94% and the EC50 is 79.4 nM.
Turning to `COc1ncc(Cc2cc(-n3nc(C)c4c3CCNC4=O)ccn2)cc1F` [Example 93, 1-(2-((5-fluoro-6-methoxypyridin-3-yl)methyl)pyridin-4-yl)-3-methyl-1,5,6,7-tetrahydro-4H-pyrazolo[4,3-c]pyridin-4-one], at human GPR52 [2], the Emax came out at 83% and a half-maximal response (EC50) required 100 nM.
On human GPR52 [2], `O=C(c1cc(F)cc(C(F)(F)F)c1)c1cc(-n2ncc3c2CCNC3=O)ccn1` [Example 35, 1-(2-(3-fluoro-5-(trifluoromethyl)benzoyl)pyridin-4-yl)-1,5,6,7-tetrahydro-4H-pyrazolo[4,3-c]pyridin-4-one] gave an Emax of 40% and an EC50 of 3160 nM.
At human GPR52 [2], `O=C1NCCc2c1cnn2-c1ccnc(C(O)c2cc(F)cc(C(F)(F)F)c2)c1` (stereo not shown) [Example 36, 1-(2-((3-fluoro-5-(trifluoromethyl)phenyl)(hydroxy)methyl)pyridin-4-yl)-1,5,6,7-tetrahydro-4H-pyrazolo[4,3-c]pyridin-4-one] had an Emax of 92% and an EC50 of 501 nM.
On the same counts, the results for `O=C1NCCc2c1cnn2-c1ccnc(Cc2cc(F)cc(OC(F)F)c2)c1` [Example 62, 1-(2-(3-(difluoromethoxy)-5-fluorobenzyl)pyridin-4-yl)-1,5,6,7-tetrahydro-4H-pyrazolo[4,3-c]pyridin-4-one] are 94% and 79.4 nM.
On the same counts, the results for `Cc1nn(-c2ccnc(C(O)c3cc(F)cc(C(F)(F)F)c3)c2)c2c1C(=O)NCC2` (single isomer, unassigned) [117 Isomer 1, 1-(2-((3-fluoro-5-(trifluoromethyl)phenyl)(hydroxy)methyl)pyridin-4-yl)-3-methyl-1,5,6,7-tetrahydro-4H-pyrazolo[4,3-c]pyridin-4-one] are 83% and 251 nM.
At human GPR52 [2], `O=C1NCCc2c1cnn2-c1ccnc(Oc2cc(F)cc(C(F)(F)F)c2)c1` [Example 52, 1-(2-(3-fluoro-5-(trifluoromethyl)phenoxy)pyridin-4-yl)-1,5,6,7-tetrahydro-4H-pyrazolo[4,3-c]pyridin-4-one] showed an Emax of 69% and an EC50 of 1580 nM.
Taken in the same sequence, the figures for `O=C1NCCc2c1cnn2-c1ccnc(Cc2cc(C(F)(F)F)ccc2F)c1` [Example 30, 1-(2-(2-fluoro-5-(trifluoromethyl)benzyl)pyridin-4-yl)-1,5,6,7-tetrahydro-4H-pyrazolo[4,3-c]pyridin-4-one] were 77% and 794 nM.
